The values below come from paper PMC5971061, “Differential Effects of Linkers on the Activity of Amphiphilic Tobramycin Antifungals” (Molecules : A Journal of Synthetic Chemistry and Natural …, 2018).

For test [1], the system named is Cryptococcus neoformans MYA-895. The arrangement: method as in PMID 26033722. The settings on record: previously observed; cited from earlier work.
Test [2] deals with C. parapsilosis ATCC 22019 (strain J). Briefly: Time-kill assay, strain J. The format is cell-based, Candida parapsilosis. As for the experimental part: (§1) Time-kill assays were used to assess the inhibitory efficiency of 7b against three yeast strains, C. albicans ATCC 10231 (strain A), C. parapsilosis ATCC 22019 (strain J), and C. neoformans clinical isolate CN1. The protocol for time-kill assays followed methods previously described with minor modifications. Yeast cultures were grown overnight in YPD broth at 35 °C with shaking (200 rpm). A working stock of fungal cells was made by diluting cultures in RPMI 1640 medium to an OD600 of 0.125, approximately 1 × 10^6 CFU/mL. From the working stock, 100 μL of cells was added to 4.9 mL of RPMI 1640 medium in sterile culture tubes, making the starting fungal cell concentration […]. Compounds were then added to the fungal cells. The treatment conditions included sterile control, growth control, TOB (parent; negative control), voriconazole (VOR) at 1× MIC (positive control), 7b at 1× and 4× MIC. The treated fungal cultures were incubated at 35 °C with shaking (200 rpm) for 24 h. The samples were taken from the different treatments at regular time points (0, 3, 6, 9, 12, and 24 h.) and plated in duplicates. For each time point, cultures were vortexed, 100 μL of culture was aspirated, and 10-fold serial dilutions were made in sterile ddH2O. From the appropriate dilutions, 100 μL of fungal suspension was spread on PDA plates and incubated at 35 °C for 48 h before the colony counts were determined. At 24 h, 50 μL of 1 mM resazurin was added to the treatments and incubated at 35 °C with rotation for 2 h in the dark for visual inspection. Experiments were performed in duplicate.

Test [3] deals with C. albicans ATCC 10231 (strain A). The test can be described thus: Membrane permeabilization assay using propidium iodide staining. The settings on record: 7b at 2× MIC or 4× MIC; TOB 31.3 μg/mL; 2 h treatment; compared to untreated cells. Format: cell-based, Candida albicans. As to the method: A fresh culture of C. albicans ATCC 10231 (strain A) was prepared in 5 mL of YPD broth in a Falcon tube and was grown overnight at 35 °C at 200 rpm. […] TOB (31.3 μg/mL) was used as a negative control. The cell suspensions were then treated for 2 h at 35 °C with continuous agitation (200 rpm). To prepare a positive control sample, C. albicans ATCC 10231 (strain A) cells were killed by heat shock at 95 °C for 5 min as described by Ocampo and Barrientos. The cells were then centrifuged and resuspended in 500 μL of PBS buffer (pH 7.2 adjusted at room temperature). Subsequently, the cells were treated with propidium iodide (9 μM, final concentration) and incubated for 20 min at room temperature in the dark. […] The data were obtained from at least two independent experiments. The images were also post-processed, utilizing automatic contrast and brightness setting in Microsoft PowerPoint 2013 to eliminate background noise.

The subject of test [4] is C. neoformans (strain CN1). The test can be described thus: Time-kill assay, CN1. Format: cell-based, Cryptococcus neoformans. As to the method: as §1
The test system of test [5] is C. albicans ATCC 10231 (strain A). Briefly: Time-kill assay, strain A. Format: cell-based, Candida albicans. As for the experimental part:
as §1

The subject of test [6] is C. neoformans clinical isolates CN1-3. Briefly: MIC across C. neoformans clinical isolates CN1-3. Conditions: Cryptococcus neoformans. Format: cell-based, Cryptococcus neoformans. As for the experimental part:
The final concentrations of compounds 3, 4, 7a, 7b, 9, and 16, as well as that of TOB tested in this study ranged from 0.24–62.5 μg/mL. CAS was used as a positive control and the final concentrations tested for CAS ranged from 0.03–31.3 μg/mL. Briefly, overnight yeast cultures were grown in yeast peptone dextrose (YPD) broth and the cell density was adjusted to an OD600 of 0.12 (~1 × 10^6 CFU/mL) by using a spectrophotometer. Yeast cell suspensions were further diluted to achieve 1–5 × 10^3 CFU/mL in RPMI 1640 medium, and 100 μL of these yeast cells was added to 96-well microtiter plates containing RPMI 1640 medium and titrated compounds. Each test was performed in triplicate. The plates were incubated at 35 °C for 48 h.

SMILES strings stand for the structures. Converted amounts (≈) assume the structure as drawn.

In the case of `CCCCCCCCCCCCSC[C@H]1O[C@H](O[C@@H]2[C@@H](O)[C@H](O[C@H]3O[C@H](CN)[C@@H](O)C[C@H]3N)[C@@H](N)C[C@H]2N)[C@H](O)[C@@H](N)[C@@H]1O` [Compound 3, O-3-Amino-3-deoxy-6-S-dodecyl-6-thio-α-D-glucopyranosyl-(1→6)-O-[2,6-diamino-2,3,6-trideoxy-α-D-ribo-hexopyranosyl-(1→4)]-2-deoxy-D-streptamine], the MIC value in test [1] was 1.95 µg/mL (≈ 2.99 µM).

On to `CCCCCCCCCCCCc1cn(C[C@H]2O[C@H](O[C@@H]3[C@@H](O)[C@H](O[C@H]4O[C@H](CN)[C@@H](O)C[C@H]4N)[C@@H](N)C[C@H]3N)[C@H](O)[C@@H](N)[C@@H]2O)nn1` [Compound 7b, O-3-Amino-3,6-dideoxy-6-(4-dodecyl-1H-1,2,3-triazol-1-yl)-α-D-glucopyranosyl-(1→6)-O-[2,6-diamino-2,3,6-trideoxy-α-D-ribo-hexopyranosyl-(1→4)]-2-deoxy-D-streptamine], for which the “decrease in CFU” value in test [2] (1.95 μg/mL (1× MIC), after 24 h of treatment) is recorded as at least 2 log10. The “effect on growth (time-kill, in words)” value in test [2] (7.8 μg/mL (4× MIC), after 24 h) is on record as “completely killed”; in test [2] (7b at 1.95 μg/mL (1× MIC)) it was “fungistatic effect at 1.95 μg/mL (1× MIC) only for the first 3 h”. Moreover, the “propidium iodide (PI) dye uptake (in words)” value in test [3] is listed as “larger influx of PI dye”. The “time to complete fungal cell death” value is given as 6 h in test [4] (0.49 μg/mL (1× MIC)) and 3 h in test [4] (1.95 μg/mL (4× MIC)). Further, the “reduction of CFU” value in test [4] (0.49 μg/mL (1× MIC), after 3 h of treatment) is given as at least 2 log10; in test [5] (15.6 μg/mL (4× MIC), after 6 h of treatment), at least 2 log10; in test [5] (1× MIC (7b 3.9 μg/mL; VOR 1.0 μg/mL), after 9 h of treatment), at least 2 log10.

As for `NC[C@H]1O[C@H](O[C@H]2[C@H](O)[C@@H](O[C@H]3O[C@H](CO)[C@@H](O)[C@H](N)[C@H]3O)[C@H](N)C[C@@H]2N)[C@H](N)C[C@@H]1O` [TOB, tobramycin], the “effect on growth (time-kill, in words)” value in test [2] (TOB 15.6 μg/mL, 24-h period) is on record as “did not affect the growth”; in test [4] (controls TOB 15.6 μg/mL and VOR 1× MIC, 24-h period), “little to no growth inhibitory effect”; in test [5] (24-h period, TOB 15.6 μg/mL, VOR 1× MIC 1.0 μg/mL) it was “did not affect the growth”. In addition, the “propidium iodide (PI) dye uptake (in words)” value in test [3] was “negligible staining”. The compound further displayed an MIC in test [6] above 62.5 µg/mL.
